The source of these data is patent publication US20110189094A1, “BIOLOGICAL METHOD FOR IN VIVO TRACKING OF MOLECULES AFFECTING CELLULAR MIGRATION” (UNIVERSIDAD DE CHILE, priority 2008, published 2011).

Test [1] has as its system CD83. The test is described as follows: Expression of CD83 in dendritic cells. It is filed as cell-based. The text has this: (§1) Dendritic cells, when entering the maturation process, start to express chemokine receptors (CCR7, CXCR4) that direct their migration towards the secondary lymphoid organs. We have recently discovered that Fenritinide {4-HPR), a molecule utilized in “clinical trials” against breast cancer and neuroblastoma, inhibits the expression of CCR7 and CXCR4 in dendritic cells in maturation {Villablanca, Allende and collaborators; manuscript in preparation). […] In this way, Fenritinide would produce a blocking of the mature dendritic cells in the periphery, preventing their migration and arrival at the secondary lymphoid organs, affecting in this way the development of an immune response to pathogens or towards the tumoral cells proper.

The subject of test [2] is CCR7. The test is described as follows: Expression of CCR7 in dendritic cells in maturation. It is filed as cell-based.
Text: as §1

In test [3] the test system is CD80. The test is described as follows: Expression of CD80 in dendritic cells. Format: cell-based.
Text: as §1

Test [4] has as its system CD86. The test is described as follows: Expression of CD86 in dendritic cells. Format: cell-based.
Text: as §1

Test [5] concerns posterior lateral line primordium. The test is described as follows: Primordium migration with claudin-B primordium marker in zebra fish embryos. It is filed as in vivo, zebra fish (Danio rerio). The following applies: Example 2, incubation 22 hpf until 36 hpf. As to the method:
(§2) Zebra fish (Danio rerio) are used, kept in a 14/10-hour light/darkness cycle. Embryos are recovered after natural fish mating and they grow in Petri plates at 28° C. in E3 medium (5 mM NaCl, 0.17 mM KCl, 0.33 mM CaCl2, 0.33 mM MgSO4, and 0.1% Methylene Blue) until the reach the development stadium suitable for the test, which is determined according to Kimmel et al., (1995). The larval stadiums are designated in post fertilization hours (hpf) or post fertilization days (dpf).
(§3) In this way, we have evaluated our hypothesis of the Fenritinide effect on dendritic cells, taking our invention as the test model. Zebra fish embryos were incubated in accordance with the basic conditions described in Example 1, but in the presence of Fenritinide since the time when the posterior lateral line primordium starts to migrate (22 hours post fecundation (hpf) stadium), until the LLP system is mature (36 hpf stadium) and is easily visualized with the DiAsp tinction. […] We checked whether the absence of mature neuromasts is caused by migration blocking by means of in situ hybridization using the claudin-B (anti-claudinB antibody, detected with immunofluorescence) primordium marker.

The subject of test [6] is lateral line primordium. The test is described as follows: Lateral line primordium migration in CldnB::GFP transgenic zebra fish larvae (GFP fluorescence). The following applies: 20 μM in medium, 22 hpf until 36 hpf. Format: in vivo, zebra fish (Danio rerio). As to the method:
as §2
In this first example, in each cup on a plate with 24 cups with 2 ml of E3 medium each, we placed from 3-10 transgenic embryos that express the GFP gene under the control of the CldnB promoter (CldnB::GFP; kindly donated by Dr. Darren Gilmour (EMBL, Heidelberg, Germany). The agents subjected to tests (N˜(4˜hydroxyphenyl)retinamide (Fenretinide, 4-HPR), retinaldehide 9-cis, retinaldehide all-trans and only with the control vehicle: DMSO) were added to the medium at a final concentration of 20 μM when the embryos reached the 22 hpf stadium and the fish were kept in the medium plus the agent until 36 hpf. The GFP mark in the migratory primordium was observed every 4-6 hours in order to monitor its progress. At 36 hpf, we fixed one half of the fish (5 from each cup) with 4% paraformaldehyde dissolved in PBS. We observe the fluorescence of GFP (indicating the primordium position) and evaluated whether it migrated properly or not (FIG. 1).

Test [7] has as its system CXCR4. The test is described as follows: Expression of CXCR4 in dendritic cells in maturation. Format: cell-based.
Text: as §1

In test [8] the test system is neuromasts. The test is described as follows: DiAsp tinction of mature neuromasts of the posterior lateral line in zebra fish embryos. It is filed as in vivo, zebra fish (Danio rerio). As to the method: as §2, §3
(§4) Embryos in the 22 hpf stadium were incubated between 26 and 28° C., in the absence or presence of either PGD2 or 15-deoxy-PJE2, permitting the development of embryos up to the 36 hpf stadium, at which time we checked the primordium advance both in the treated embryos and in the (untreated) control embryos.

Test [9] relates to human dendritic cells. The following applies: literature, Nencioni et al. 2002; cited from earlier work.
The test system of test [10] is LLP primordium. The test is described as follows: LLP primordium advance in zebra fish embryos incubated with prostaglandins. Format: in vivo, zebra fish (Danio rerio). As to the method:
as §2, §4

Test [11] relates to CXCR4. The conditions noted are these: literature, Scandelia et al. 2002; cited from earlier work.
Test [12] deals with dendritic cells. The test is described as follows: Migration of dendritic cells. Format: cell-based. The conditions noted are these: negative control.
Text: as §1

The mark [13] stands for this setting: Example 3, 10 μM, 22 hpf up to 36 hpf.

In the case of `CC1=C(/C=C/C(C)=C/C=C/C(C)=C/C(=O)Nc2ccc(O)cc2)C(C)(C)CCC1` [4-HPR, N˜(4˜hydroxyphenyl)retinamide], in test [1], the “inhibition of CD83” value was “does not inhibit”. Further, the “expression of CCR7” value in [2] is recorded as “inhibits”. In addition, in test [3], the “inhibition of CD80” value was “does not inhibit”. In test [4], the “inhibition of CD86” value was “does not inhibit”. The “primordium migration (claudin-B primordium marker)” value in test [5] is recorded as “blocking of the migratory primordium at the beginning of its migration”. The “migration of the lateral line primordium (GFP fluorescence)” value (“migration of the lateral line primordium” for short) in test [6] was “delay in the migration”. Besides, in test [7], the “expression of CXCR4” value is “inhibits”. Moreover, the “DiAsp tinction of mature neuromasts” value in [8] (Example 2, incubation 22 hpf until 36 hpf) is given as “negative”.
Consider `CC1=C(/C=C/C(C)=C\C=C\C(C)=C\C=O)C(C)(C)CCC1` [9cRA, 9-cis retinaldehyde], for which the “migration of the lateral line primordium” value in [6] is on record as “normal migration”.
On to `CCCCC[C@H](O)/C=C/[C@H]1C(=O)C[C@H](O)[C@@H]1C/C=C\CCCC(=O)O` [PGD2], for which the “migration through CXCR4 in human dendritic cells” value in [9] was “inhibit migration”. The LLP primordium migration entry in test [10] (setting [13]) is on record as “considerably slower”. For the same molecule, in test [8] (setting [13]), the “DiAsp tinction of neuromasts” value is reported as “negative”.
On to `CCCCC[C@H](O)/C=C/[C@H]1[C@H](O)CC(=O)[C@@H]1C/C=C\CCCC(=O)O` [PGE2], for which, in [11], the “expression of CXCR4 in dendritic cells” value was “increments”. Further, the LLP primordium migration entry in [10] (Example 3, 22 hpf up to 36 hpf, concentration not given) was “migrated normally”. Besides, the “DiAsp tinction of neuromasts” value in test [8] (Example 3, 22 hpf up to 36 hpf, 26-28° C., concentration not given) is “dyed with DiAsp”.
Take `CC1=C(/C=C/C(C)=C/C=C/C(C)=C/C(=O)O)C(C)(C)CCC1` [retinoic acid]: in test [12], the “inhibition of the migration of dendritic cells” value is recorded as “not capable of inhibiting”. Also, the “expression of CXCR4” value in [7] is “not capable of inhibiting”.
Consider retinaldehide all-trans [atRA], for which the “migration of the lateral line primordium” value in [6] is “normal migration”.
